Measurements from article PMC5023282, “A rapid fluorometric assay for the S-malonyltransacylase FabD and other sulfhydryl utilizing enzymes” (Journal of Biological Methods, 2016).

Molecular target: T1, FabD (malonyl-coenzyme A transacylase; malonyl-CoA:ACP transacylase) (Escherichia coli, UniProt P0AAI9)
T1 construct: full ORF in pET28b (NcoI/EcoRI), one extra N-terminal glycine, no His tag; expressed in E. coli BL21* DE3
Experiment: CPM fluorescence detection of CoA-SH after TCA precipitation of holo-ACP, initial rates
Format: biochemical
Conditions: holo-ACP 125 µM; 25 mM MOPS, 100 mM NaCl, 1 mg/ml BSA, pH 7.1, 30°C
Text: CPM fluorescence detection of CoA-SH after TCA precipitation of holo-ACP, initial rates on FabD (malonyl-coenzyme A transacylase; malonyl-CoA:ACP transacylase)

T1 sequence (P0AAI9 2-309): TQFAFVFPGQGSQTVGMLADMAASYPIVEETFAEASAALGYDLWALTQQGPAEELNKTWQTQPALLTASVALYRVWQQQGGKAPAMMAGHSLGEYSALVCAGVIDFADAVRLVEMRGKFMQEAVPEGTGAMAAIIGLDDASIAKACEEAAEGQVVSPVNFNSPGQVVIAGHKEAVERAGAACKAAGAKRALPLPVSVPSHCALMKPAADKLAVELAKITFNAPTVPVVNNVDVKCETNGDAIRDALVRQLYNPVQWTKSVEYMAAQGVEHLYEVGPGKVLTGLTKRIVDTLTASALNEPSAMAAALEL

- Km: 60 ± 20 µM
SMILES: CC(C)(COP(=O)(O)OP(=O)(O)OC[C@H]1O[C@@H](n2cnc3c(N)ncnc32)[C@H](O)[C@@H]1OP(=O)(O)O)[C@@H](O)C(=O)NCCC(=O)NCCSC(=O)CC(=O)O [malonyl-CoA]
